Test results from patent publication US7381724B2, “Optically active 5H-pyrrolo[3,4-b]pyrazine derivative, its preparation and pharmaceutical compositions containing same” (Sepracor Inc., priority 1991, dated 2008).

Assays:
[1] = system: central benzodiazepine receptor sites; assay: test of affinity for central benzodiazepine receptor sites; format: binding; conditions: relative to racemic zopiclone; technique of Blanchard and Julou
[2] = system: pentetrazol-induced convulsions; assay: test of antagonist activity with respect to pentetrazol-induced convulsions; format: in vivo; conditions: relative to racemic zopiclone; technique of Everett and Richards
animals = assay: pharmacological properties in animals; format: in vivo
mice = assay: acute oral toxicity (LD50) in mice; conditions: for toxicity compared with the racemate: relative to racemic zopiclone
writhing reflex = writhing reflex test in mice; format: in vivo; conditions: relative to racemic zopiclone, technique of Zbinden and Randall
[3] = acute oral toxicity (LD50) in mice; conditions: mouse, in vivo, po

SMILES | potency of action, affinity for central benzodiazepine receptor sites [1] | potency of action, antagonist activity with respect to pentetrazol-induced convulsions [2] | properties displayed in animals (animals) | toxicity (LD50) (mice; administered orally to mice) | toxicity compared with the racemate (mice) | potency of action, writhing reflex test (writhing reflex) | LD50 [3]
CN1CCN(C(=O)O[C@H]2c3nccnc3C(=O)N2c2ccc(Cl)cn2)CC1 (single isomer, unassigned) [dextrorotatory isomer] | approximately twice as active | approximately twice as active | hypnotic, sedative, anxiolytic, muscle-relaxant and anticonvulsant properties | ~1500 mg/kg | lower toxicity than that of the racemate | approximately twice as active | –
CN1CCN(C(=O)OC2c3nccnc3C(=O)N2c2ccc(Cl)cn2)CC1 (racemic) [zopiclone, 6-(5-chloro-2-pyridyl)-5-[(4-methyl-1-piperazinyl)carbonyloxy]-7-oxo-6,7-dihydro-5H-pyrrolo[3,4-b]pyrazine, reference compound] | – | – | – | – | – | – | ~850 mg/kg
CN1CCN(C(=O)O[C@@H]2c3nccnc3C(=O)N2c2ccc(Cl)cn2)CC1 (single isomer, unassigned) [laevorotatory isomer, reference compound] | almost inactive | almost inactive | – | – | more toxic than the racemate | almost inactive | –
